In the supplement of paper PMC9265050, “Inhibition of RNA Binding in SND1 Increases the Levels of miR-1-3p and Sensitizes Cancer Cells to Navitoclax” (Cancers, 2022):

Tested on: SW480
Assay: drug sensitivity score (DSS, integrated dose-response area); higher = more sensitive (stronger viability reduction); extreme values may be limits of the assay
Outline: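 Viability of induced SW480 cells carrying control or SND1-targeting shRNA was read by CellTiter-Glo 72 h after plating at 1000 cells per well onto 384-well plates holding 525 small-molecule inhibitors at five concentrations. Induction used 0.1 µg/mL doxycycline for 7 days. Each drug sensitivity score integrates the area under a fitted non-linear dose–response model.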

[1] = shRNA: SND1 shRNA1 (SND1 silenced)
[2] = shRNA: SND1 shRNA2 (SND1 silenced)
[3] = shRNA: control shRNA (non-targeting)

Structure (SMILES) | drug sensitivity score [1] | drug sensitivity score [2] | drug sensitivity score [3]
c1ccc(Cn2c(-c3ccc(OC[C@H](C4CCNCC4)n4c(-c5ccccc5)nc5ccccc54)cc3)nc3ccccc32)cc1 [deltarasin] | 5.7 DSS | 6.6 DSS | 4.4 DSS
CC/C(=C(\c1ccccc1)c1ccc(OCCN(C)C)cc1)c1ccccc1 [Tamoxifen] | 5 DSS | 4.4 DSS | 5.9 DSS
CS(=O)(=O)N1CCc2c(-c3cnc(N)nc3)nc(N3CCOCC3)nc21 | 7 DSS | 6.4 DSS | 4.2 DSS
C[C@@H](Oc1ccc2[nH]nc(/C=C/c3cnn(CCO)c3)c2c1)c1c(Cl)cncc1Cl | 8.9 DSS | 3.6 DSS | 4.2 DSS
Cc1cc(Nc2cc(CN3CCOCC3)c3nc(C)c(Cc4ccc(Cl)cc4F)n3n2)n[nH]1 [Gandotinib] | 6.9 DSS | 4.1 DSS | 7 DSS
NCCNc1ccc(NCCN)c2c1C(=O)c1ccncc1C2=O [Pixantrone] | 0 DSS | 0 DSS | 0 DSS
Cn1cncc1[C@@](N)(c1ccc(Cl)cc1)c1ccc2c(c1)c(-c1cccc(Cl)c1)cc(=O)n2C [Tipifarnib] | 8.8 DSS | 8.7 DSS | 10.2 DSS
CCCc1cc(C)[nH]c(=O)c1CNC(=O)c1cc(-c2ccnc(N3CCN(C)CC3)c2)cc2c1cnn2C(C)C [GSK343] | 0 DSS | 0 DSS | 4.5 DSS
Cc1ccc(-c2cc(C(F)(F)F)nn2-c2ccc(S(N)(=O)=O)cc2)cc1 [Celecoxib] | 0 DSS | 0 DSS | 0 DSS
COc1cc(N2CCC(N3CCN(C)CC3)CC2)ccc1Nc1ncnc(Nc2ccccc2S(=O)(=O)C(C)C)n1 [ASP3026] | 4.6 DSS | 5 DSS | 8 DSS
COc1ccc(-c2cc3c(C)nc(N)nc3n([C@H]3CC[C@H](OCCO)CC3)c2=O)cn1 | 17.3 DSS | 13.9 DSS | 9.3 DSS
C=CCn1c(=O)c2cnc(Nc3ccc(N4CCN(C)CC4)cc3)nc2n1-c1cccc(C(C)(C)O)n1 [MK1775] | 13.5 DSS | 11.5 DSS | 11.9 DSS
Nc1nc2[nH]cnc2c(=S)[nH]1 [Thioguanine] | 9.3 DSS | 5.9 DSS | 8.4 DSS
CN1CCN(C2CCN(C(=O)Nc3cc(Oc4ccc(NC(=O)C5(C(=O)Nc6ccc(F)cc6)CC5)c(F)c4)ccn3)CC2)CC1 [Golvatinib] | 0 DSS | 2.2 DSS | 0 DSS
CCn1c(C(=O)N(C2CC2)C2CC2)cc2c3c(ncn3C)c(Nc3cc(C)n(C)n3)nc21 | 0 DSS | 0 DSS | 0 DSS
NC(=O)N1CCC(CC(=O)N2CCC([C@H]3c4ncc(Br)cc4CCc4cc(Cl)cc(Br)c43)CC2)CC1 [Lonafarnib] | 6.9 DSS | 8.8 DSS | 4.9 DSS
C1=N/C2=N/c3ccc(OCCN4CCCC4)c(c3)COC/C=C/COCc3cccc(c3)C(=C1)N2 [Pacritinib] | 9.6 DSS |  | 10 DSS
Cc1c(Cn2c(C)nc3c(C(=O)O)cc(N4CCOCC4)cc32)cccc1C(F)(F)F | 2 DSS | 3.3 DSS | 0.8 DSS
CC(C)(C#N)c1cc(Cn2cncn2)cc(C(C)(C)C#N)c1 [Anastrozole] | 0 DSS | 0 DSS | 0 DSS

Structure (SMILES) | drug sensitivity score [1] | drug sensitivity score [2] | drug sensitivity score [3]
C[C@@]1(C(=O)Nc2ccc(F)nc2)CCCN1c1nc(Nc2cc(C3CC3)n[nH]2)c2cccn2n1 | 8.1 DSS | 4.6 DSS | 2.4 DSS
NC(=O)c1ccc(I)c([N+](=O)[O-])c1 [Iniparib] | 0.4 DSS | 0.1 DSS | 0 DSS
c1ccc2c(CCNc3ccc(Nc4ccncc4)cc3)c[nH]c2c1 [Serdemetan] | 2.4 DSS | 1 DSS | 2.2 DSS
CC(C)Cn1cnc2c(N)nc3ccccc3c21 [Imiquimod] | 0.9 DSS | 0.1 DSS | 3.5 DSS
CC[C@H](NC(=O)[C@H](C)NC)C(=O)N1C[C@@H](O)C[C@H]1Cc1c(-c2[nH]c3cc(F)ccc3c2C[C@@H]2C[C@H](O)CN2C(=O)[C@H](CC)NC(=O)[C@H](C)NC)[nH]c2cc(F)ccc12 [Birinapant] | 0 DSS | 0 DSS | 0 DSS
O=P1(NCCCl)OCCCN1CCCl (stereo unspecified) [Ifosfamide] | 0 DSS | 0 DSS | 0 DSS
COc1cc2c(Oc3ccc(NC(=O)C4(C(=O)Nc5ccc(F)cc5)CC4)cc3F)ccnc2cc1OCCCN1CCOCC1 [Foretinib] | 4.1 DSS | 4.2 DSS | 5 DSS
NC(=O)c1cccc(-c2cccc(OC(=O)NC3CCCCC3)c2)c1 [URB597] | 0.2 DSS |  | 2.6 DSS
C[C@@H](Oc1cc(-c2cnn(C3CCNCC3)c2)cnc1N)c1c(Cl)ccc(F)c1Cl [Crizotinib] | 0.6 DSS | 0.2 DSS | 2.9 DSS
CC(C)C(=O)Nc1ccc([N+](=O)[O-])c(C(F)(F)F)c1 [Flutamide] | 0 DSS | 0 DSS | 0 DSS
O=C(CCCCCCNC(=O)c1cnc(N(c2ccccc2)c2ccccc2)nc1)NO [Rocilinostat] | 4 DSS | 7 DSS | 8.4 DSS
COc1ccc(Cn2ccc3ccc(C(=O)NO)cc32)cc1 | 3.3 DSS | 5.3 DSS | 1.8 DSS
COc1nc(N)nc2c1ncn2[C@@H]1O[C@H](CO)[C@@H](O)[C@@H]1O [Nelarabine] | 0 DSS | 0 DSS | 0 DSS
CCN1CCN(c2ccc(Nc3cc(N(C)C(=O)Nc4c(Cl)c(OC)cc(OC)c4Cl)ncn3)cc2)CC1 [NVP-BGJ398] | 0 DSS | 0 DSS | 0 DSS
CCN(CC)CCCC(C)Nc1c2ccc(Cl)cc2nc2ccc(OC)cc12 (stereo unspecified) [Mepacrine] | 21.5 DSS |  | 21.5 DSS
O=P1(N(CCCl)CCCl)NCCCO1 (stereo unspecified) [Cyclophosphamide] | 0 DSS | 0 DSS | 0 DSS
CC1(COc2ccc3c(c2)ncn3-c2ccc3cccc(N4CCC(N)CC4)c3n2)COC1 [Crenolanib] | 11.9 DSS | 11.7 DSS | 13 DSS
CCNC(=O)c1noc(-c2cc(C(C)C)c(O)cc2O)c1-c1ccc(CN2CCOCC2)cc1 [Luminespib] | 15.3 DSS | 15.4 DSS | 15.7 DSS
CCOc1cc2ncc(C#N)c(Nc3ccc(OCc4ccccn4)c(Cl)c3)c2cc1NC(=O)/C=C/CN(C)C [Neratinib] | 3.9 DSS | 4.3 DSS | 4 DSS
